Earlier results in PMC9271465 (ESMO Open, 2022).
Like-named read-outs stand apart in the source and are kept apart here.

Legend:
[1] = tested on: EGFR-mutated NSCLC; conditions: cited from earlier work
[2] = cited from earlier work
[3] = tested on: EGFR T790M+ NSCLC; conditions: cited from earlier work
[4] = EGFR T790M+ advanced NSCLC after progression on prior EGFR-TKI
[5] = central nervous system activity
[6] = metastatic EGFR T790M+ NSCLC progressed during or after first-line EGFR-TKI

Structure (SMILES): C#Cc1cccc(Nc2ncnc3cc4c(cc23)OCCOCCOCCO4)c1 [Icotinib]
- median OS [1]: 30.5 months
- median PFS [1]: 11.2 months

Structure (SMILES): C=CC(=O)Nc1cccc(Oc2nc(Nc3ccc(N4CCN(C)CC4)c(F)c3)nc3[nH]ccc23)c1 [abivertinib]
- most common TRAEs [2]: rash/diarrhea

Structure (SMILES): C=CC(=O)Nc1cc(Nc2nccc(-c3cn(C4CC4)c4ccccc34)n2)c(OC)cc1N(C)CCN(C)C [almonertinib]
- intracranial ORR [3, 4]: 60.9%
- updated ORR [3, 4]: 68.9%
- DCR ([3]; phase I trial): 89%
- ORR ([3]; phase I trial): 50%
- PFS ([3]; phase I trial): 9.6 months

Structure (SMILES): C#Cc1cccc(Nc2ncnc3cc(OCCOC)c(OCCOC)cc23)c1 [erlotinib]
- median overall survival (OS) ([1]; EGFR-mutated NSCLC): 19.3-30.5 months
- median progression-free survival (PFS) ([1]; EGFR-mutated NSCLC): 9.7-10.8 months

Structure (SMILES): C=CC(=O)Nc1cc(Nc2nccc(-c3cn(C)c4ccccc34)n2)c(OCC(F)(F)F)nc1N(C)CCN(C)C [furmonertinib]
- ORR ([3]; EGFR T790M-mutated NSCLC): 74%
- median PFS ([3]; EGFR T790M-mutated NSCLC): 9.6 months

Structure (SMILES): C=CC(=O)Nc1cc(Nc2nccc(-n3cc(CN(C)C)c(-c4ccccc4)n3)n2)c(OC)cc1N1CCOCC1 [lazertinib]
- most common TRAEs [2]: rash/pruritis

Structure (SMILES): Cc1cc(C(=O)Nc2nc3cccc(Cl)c3n2[C@@H]2CCCCN(C(=O)/C=C/CN(C)C)C2)ccn1 [nazartinib]
- most common TRAEs [2]: rash/diarrhea

Structure (SMILES): C=CC(=O)Nc1cc(Nc2nccc(-c3cn(C)c4ccccc34)n2)c(OC)cc1N(C)CCN(C)C [osimertinib]
- intracranial DCR [3, 5]: 92%
- intracranial ORR [3, 5]: 54%
- ORR [3, 6]: 61%-71
- median PFS [3, 6]: 9.6-15.2 months
